Molecular target: T1, rCfDDC (recombinant CfDDC, dopa decarboxylase of Chlamys farreri) (Azumapecten farreri, UniProt F8QPW5)
T1 construct: gene DDC; ~65 kDa on gel
T1 sequence (F8QPW5 1-560): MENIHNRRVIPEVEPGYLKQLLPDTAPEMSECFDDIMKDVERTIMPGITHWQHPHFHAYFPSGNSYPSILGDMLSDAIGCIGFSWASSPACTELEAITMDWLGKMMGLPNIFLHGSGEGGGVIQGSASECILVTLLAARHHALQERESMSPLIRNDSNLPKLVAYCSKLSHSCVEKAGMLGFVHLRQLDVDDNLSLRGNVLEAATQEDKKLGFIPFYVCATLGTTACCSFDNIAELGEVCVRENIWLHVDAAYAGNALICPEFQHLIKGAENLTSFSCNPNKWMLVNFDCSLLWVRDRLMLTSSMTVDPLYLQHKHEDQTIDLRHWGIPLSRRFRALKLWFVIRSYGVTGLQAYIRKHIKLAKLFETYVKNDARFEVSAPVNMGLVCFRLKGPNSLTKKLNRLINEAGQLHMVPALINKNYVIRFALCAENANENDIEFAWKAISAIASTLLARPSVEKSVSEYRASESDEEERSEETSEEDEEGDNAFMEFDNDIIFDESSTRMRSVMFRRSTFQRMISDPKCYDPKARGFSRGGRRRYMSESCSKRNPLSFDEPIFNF
Test: dopamine formation measured by ELISA kit
Type: biochemical
Details: 30 mM L-Dopa; 0.4 mM PLP; PBS pH 7.4; 37 °C; 1 h

**Q.** With N[C@@H](Cc1ccc(O)c(O)c1)C(=O)O [L-Dopa] as the molecule, how does the “dopamine formation measured by ELISA kit” value read?
**A.** there was detectable dopamine in the reactions with the addition of rCfDDC
